Measurements as given in US20080274892A1, “Novel Haloalkylsulfonanilide Derivative, Herbicide, and Method of Use Thereof” (priority 2005, published 2008).

Key:
barnyard glass = test: Test Example 2: herbicidal efficacy on rice paddy weeds post-emergence; assay type: in vivo, Echinochloa crus-galli; conditions: 21 days after treatment
Text: (§1) The standard of judgment for herbicidal efficacy (degree of growth inhibition) and phytotoxicity 4 . . . 90%-100% of herbicidal efficacy or phytotoxicity 3 . . . 70%-89% of herbicidal efficacy or phytotoxicity 2 . . . 40%-69% of herbicidal efficacy or phytotoxicity 1 . . . 1%-39% of herbicidal efficacy or phytotoxicity 0 . . . 0% of herbicidal efficacy or phytotoxicity
(§2) A 75 cm^2 plastic pot was filled with soil (clay loam) and planted seeds of barnyard glass and bulrush which is a rice paddy weed. After covering the top with 75 cm^3 soil mixed with seeds of false pimpernel, the pot was filled with water so that the soil submerged under 5 cm depth of water and kept in a hot house. […] The pot was kept in a hot house for 21 days after the treatment and the herbicidal efficacy was investigated and evaluated according to the standard in Test Example 1 by comparing with the untreated control. “-” in the table represents test not done.

false pimpernel [1] = test: as above; assay type: in vivo, Lindernia pyxidaria; conditions: 21 days after treatment
Text: as §1, §2

[2] = system: paddy rice plant (cultivar: Nihonbare); test: Test Example 3: phytotoxicity test for transplanted paddy rice plant; assay type: in vivo; conditions: 21 days after treatment; for Phytotoxicity to paddy rice: transplanted rice; for Phytotoxicity to paddy rice (grade): dosage 1000 g/ha active ingredient, vs untreated control
Experimental: as §1
A 75 cm^2 plastic pot was filled with soil (clay loam), and water was added so that the soil was submerged under 5 cm depth of water. Two paddy rice plant (cultivar: Nihonbare) at two leaves stage were transplanted at the depth of 1 cm and kept in a hot house. […] The pot was kept in a hot house for 21 days after the treatment and the phytotoxicity was investigated and evaluated according to the standard in Test Example 1 by comparing with the untreated control. “-” in the table represents test not done.

false pimpernel [3] = test: Test Example 1: herbicidal efficacy on rice paddy weeds pre-emergence; assay type: in vivo, Lindernia pyxidaria; conditions: 21 days
Experimental: (§3) A 75 cm^2 plastic pot was filled with soil (clay loam) and planted seeds of bulrush which is a rice paddy weed. After covering the top with 75 cm^3 soil mixed with seeds of false pimpernel, the pot was filled with water so that the soil submerged under 5 cm depth of water. The predetermined effective dosage ([…]) of a formulation containing the compound of the present invention prepared according to Formulation Example 1-4 as an active ingredient was diluted in water and added to the pot water surface dropwise. The pot was kept in a hot house for 21 days and the herbicidal efficacy was investigated. The herbicidal efficacy was evaluated according to the following standard by comparing with untreated control. “-” in the table represents test not done.
as §1

bulrush [4] = test: Test Example 2: herbicidal efficacy on rice paddy weeds post-emergence; assay type: in vivo, Scirpus juncoides; conditions: 21 days after treatment
Text: as §1, §2

bulrush [5] = test: Test Example 1: herbicidal efficacy on rice paddy weeds pre-emergence; assay type: in vivo, Scirpus juncoides; conditions: 21 days
Experimental: as §3, §1

[6] = dosage 300 g/ha, post-emergence, one leaf stage
[7] = dosage 1000 g/ha, post-emergence, one leaf stage
[8] = dosage 1000 g/ha, treated 5 days after transplantation
[9] = dosage 1000 g/ha active ingredient, post-emergence treatment at one leaf stage, vs untreated control
[10] = treated 5 days after transplantation
[11] = dosage 1000 g/ha active ingredient, vs untreated control

SMILES | Burnyard grass post (herbicidal efficacy grade) (barnyard glass; [6]) | False pimpernel post (herbicidal efficacy grade) (false pimpernel [1]; [6]) | Phytotoxicity to paddy rice ([2]; dosage 300 g/ha) | False pimpernel pre (herbicidal efficacy grade) (false pimpernel [3]; dosage 300 g/ha) | Bulrush post (herbicidal efficacy grade) (bulrush [4]; [6]) | Bulrush pre (herbicidal efficacy grade) (bulrush [5]; dosage 300 g/ha) | Burnyard grass post (herbicidal efficacy grade) (barnyard glass; [7]) | False pimpernel post (herbicidal efficacy grade) (false pimpernel [1]; [7]) | Phytotoxicity to paddy rice [2, 8] | False pimpernel pre (herbicidal efficacy grade) (false pimpernel [3]; dosage 1000 g/ha) | Bulrush post (herbicidal efficacy grade) (bulrush [4]; [7]) | Bulrush pre (herbicidal efficacy grade) (bulrush [5]; dosage 1000 g/ha) | further results
O=C1OC(COc2ccccc2)CN1Cc1ccccc1NS(=O)(=O)C(F)(F)F (racemic) [Compound 1-51] | 0 (0% of herbicidal efficacy or phytotoxicity) | 3 (70%-89% of herbicidal efficacy or phytotoxicity) | 0 (0% of herbicidal efficacy or phytotoxicity) | 4 (90%-100% of herbicidal efficacy or phytotoxicity) | 4 (90%-100% of herbicidal efficacy or phytotoxicity) | 3 (70%-89% of herbicidal efficacy or phytotoxicity) |  |  |  |  |  |  | 
CC(C)COC(=O)N(c1ccccc1CN1CC(COc2ccccc2)OC1=O)S(=O)(=O)C(F)(F)F (racemic) [Compound 1-52] | 3 (70%-89% of herbicidal efficacy or phytotoxicity) | 4 (90%-100% of herbicidal efficacy or phytotoxicity) | 0 (0% of herbicidal efficacy or phytotoxicity) | 4 (90%-100% of herbicidal efficacy or phytotoxicity) | 4 (90%-100% of herbicidal efficacy or phytotoxicity) | 4 (90%-100% of herbicidal efficacy or phytotoxicity) |  |  |  |  |  |  | 
CC(C)CC1(C)CN(Cc2ccccc2NS(=O)(=O)C(F)(F)F)C(=O)O1 (racemic) [Compound 1-103] | 4 (90%-100% of herbicidal efficacy or phytotoxicity) | 4 (90%-100% of herbicidal efficacy or phytotoxicity) | 2 (40%-69% of herbicidal efficacy or phytotoxicity) | 4 (90%-100% of herbicidal efficacy or phytotoxicity) | 4 (90%-100% of herbicidal efficacy or phytotoxicity) | 4 (90%-100% of herbicidal efficacy or phytotoxicity) |  |  |  |  |  |  | 
CC(C)COC(=O)N(c1ccccc1CN1CC(C)(CC(C)C)OC1=O)S(=O)(=O)C(F)(F)F (racemic) [Compound 1-104] |  |  |  |  |  |  | 4 (90%-100% of herbicidal efficacy or phytotoxicity) | 4 (90%-100% of herbicidal efficacy or phytotoxicity) | 2 (40%-69% of herbicidal efficacy or phytotoxicity) | 4 (90%-100% of herbicidal efficacy or phytotoxicity) | 4 (90%-100% of herbicidal efficacy or phytotoxicity) | 4 (90%-100% of herbicidal efficacy or phytotoxicity) | 
CC(C)COC(=O)N(c1ccccc1CN1CC(CNC(=O)OC(C)(C)C)OC1=O)S(=O)(=O)C(F)(F)F (racemic) [Compound 1-107] | 3 (70%-89% of herbicidal efficacy or phytotoxicity) | 1 (1%-39% of herbicidal efficacy or phytotoxicity) | 0 (0% of herbicidal efficacy or phytotoxicity) | 4 (90%-100% of herbicidal efficacy or phytotoxicity) | 4 (90%-100% of herbicidal efficacy or phytotoxicity) | 4 (90%-100% of herbicidal efficacy or phytotoxicity) |  |  |  |  |  |  | 
CCCCC1(C)CN(Cc2ccccc2NS(=O)(=O)C(F)(F)F)C(=O)O1 (racemic) [Compound 1-121] | 1 (1%-39% of herbicidal efficacy or phytotoxicity) | 4 (90%-100% of herbicidal efficacy or phytotoxicity) | 1 (1%-39% of herbicidal efficacy or phytotoxicity) | 4 (90%-100% of herbicidal efficacy or phytotoxicity) | 4 (90%-100% of herbicidal efficacy or phytotoxicity) | 4 (90%-100% of herbicidal efficacy or phytotoxicity) |  |  |  |  |  |  | 
CCCCC1(C)CN(Cc2ccccc2N(C(=O)OCC(C)C)S(=O)(=O)C(F)(F)F)C(=O)O1 (racemic) [Compound 1-123] |  |  |  |  |  |  | 4 (90%-100% of herbicidal efficacy or phytotoxicity) | 4 (90%-100% of herbicidal efficacy or phytotoxicity) | 1 (1%-39% of herbicidal efficacy or phytotoxicity) | 4 (90%-100% of herbicidal efficacy or phytotoxicity) | 4 (90%-100% of herbicidal efficacy or phytotoxicity) | 4 (90%-100% of herbicidal efficacy or phytotoxicity) | 
COCOc1cccc(CN2CC(C)(C)OC2=O)c1NS(=O)(=O)C(F)(F)F [1-212] |  |  |  |  |  |  |  |  |  |  |  |  | Burnyard grass post (herbicidal efficacy grade) (barnyard glass; [9]): 3 (70%-89% of herbicidal efficacy or phytotoxicity); False pimpernel post (herbicidal efficacy grade) (false pimpernel [1]; [9]): 2 (40%-69% of herbicidal efficacy or phytotoxicity); Phytotoxicity to paddy rice (grade) [2, 10]: 3 (70%-89% of herbicidal efficacy or phytotoxicity); False pimpernel pre (herbicidal efficacy grade) (false pimpernel [3]; [11]): 1 (1%-39% of herbicidal efficacy or phytotoxicity); Bulrush post (herbicidal efficacy grade) (bulrush [4]; [9]): 2 (40%-69% of herbicidal efficacy or phytotoxicity); Bulrush pre (herbicidal efficacy grade) (bulrush [5]; [11]): 4 (90%-100% of herbicidal efficacy or phytotoxicity)
CC1(C)CN(Cc2cc3c(cc2NS(=O)(=O)C(F)(F)F)OCO3)C(=O)O1 [1-215] |  |  |  |  |  |  |  |  |  |  |  |  | Burnyard grass post (herbicidal efficacy grade) (barnyard glass; [9]): 1 (1%-39% of herbicidal efficacy or phytotoxicity); False pimpernel post (herbicidal efficacy grade) (false pimpernel [1]; [9]): 3 (70%-89% of herbicidal efficacy or phytotoxicity); Phytotoxicity to paddy rice (grade) [2, 10]: 0 (0% of herbicidal efficacy or phytotoxicity); False pimpernel pre (herbicidal efficacy grade) (false pimpernel [3]; [11]): 4 (90%-100% of herbicidal efficacy or phytotoxicity); Bulrush post (herbicidal efficacy grade) (bulrush [4]; [9]): 2 (40%-69% of herbicidal efficacy or phytotoxicity); Bulrush pre (herbicidal efficacy grade) (bulrush [5]; [11]): 2 (40%-69% of herbicidal efficacy or phytotoxicity)
O=C1OCCN1Cc1ccccc1NS(=O)(=O)C(F)(F)F [Compound 1-1] |  |  |  |  |  |  | 4 (90%-100% of herbicidal efficacy or phytotoxicity) | 4 (90%-100% of herbicidal efficacy or phytotoxicity) | 1 (1%-39% of herbicidal efficacy or phytotoxicity) | 4 (90%-100% of herbicidal efficacy or phytotoxicity) | 4 (90%-100% of herbicidal efficacy or phytotoxicity) | 4 (90%-100% of herbicidal efficacy or phytotoxicity) | 
